Tested on: primary human T cells
Assay: Genome-wide SLICE pooled CRISPR screen: CFSE-sorted proliferation after TCR stimulation
Assay type: cell-based
Conditions: log2 fold-change of sgRNA, dividing over non-dividing cells; positive hits from GW screen
From the text: To take full advantage of this platform, we scaled-up from the targeted pilot screen to genome-wide (GW) scale (Doench et al., 2016), transducing a library of 77,441 sgRNAs (19,114 genes) into T cells from two healthy donors. After confirming successful transduction of these primary human T cells (FIG. 8,A-B), the cells were re-stimulated and then FACS sorted into non-proliferating and highly-proliferating populations based on CFSE levels (FIG. 8C and Experimental Procedures). MAGeCK software (Li et al., 2014) was used to systematically identify genes that are positively or negatively selected in the proliferating population of T cells. Top positive and negative regulators from the pilot screen were confirmed in both biological replicates of the GW screen along with numerous other hits (FIG. 2A, B). To hone the list of top candidates, we performed an independent secondary screen in cells from two additional human blood donors. The results were well correlated between the primary and secondary screens (FIG. 2C). Furthermore, integrated analysis of the two independent screens performed on a total of four human blood donors provided improved power for target discovery, particularly for negative regulators of T cell proliferation (FIG. 8D). To confirm that hits are in fact dependent on TCR stimulation, we performed GW screens with increasing levels of TCR stimulation. […] The observed dose-response confirmed that the majority of the screen hits are dependent on the TCR stimulus and serve to tune resulting proliferative responses. Taken together these screens identified dozens of genetic perturbations that positively and negatively modulate T cell proliferation.
24 hours post stimulation, lentivirus was added directly to cultured T cells at a 1:300 v/v ratio and gently mixed by tilting. Following 24 hours, cells were collected, pelleted, and resuspended in Lonza electroporation buffer P3 (Lonza, Cat #V4XP-3032) at 20e6 cells/100 μl. Next, Cas9 protein (MacroLab, Berkeley, 40 μM stock) was added to cell suspension at 1:10 v/v ratio. Cells were electroporated at 20e6 cells per cuvette using the pulse code EH115 (Lonza, cat #VVPA-1002). The total number of cells for electroporation was scaled as required. Immediately after electroporation, 1 mL of pre-warmed media was added to each cuvette and cuvettes were placed at 37 degrees for 20 minutes. Cells were then transferred to culture vessels in X-Vivo media containing 50 U/ml IL-2 at 1e6 cells/ml in appropriate tissue culture vessels. Cells were expanded every two days, adding fresh media with IL-2 at 50 U/ml and maintaining the cell density at 1e6 cells/ml.
Cultured cells were collected, spun, washed with PBS, and then resuspended at 1-10 million cells/ml in PBS. CFSE (Biolegend, Cat #423801) was prepared per the manufacturer's protocol to make a 5 mM stock solution in DMSO. This stock solution was diluted 1:1000 in PBS for a 5 μM working solution, and then added in a 1:1 v/v ratio to cell suspension. After mixing, cells were incubated for 5 minutes in the dark at room temperature. The stain was then quenched with a volume of media that was at least 5× the stain volume (e.g. 2 ml+10 ml), and incubated for one minute at room temperature in the dark. Cells were then spun down and resuspended in media prior to restimulation.
PBMCs from multiple human healthy human donors were isolated from TRIMA residuals (see methods). TRIMA residuals were purchased from Blood Centers of the Pacific. After CD8 T cells isolation as above (Day 0), cells were rested in X-Vivo media overnight and then stimulated with plate-bound anti-human CD3/CD28 and IL-2 at 50 U/mL the following day (Day 1). 24 hours after stimulation (Day 2), cells were transduced with concentrated lentivirus encoding the pooled sgRNA library (see methods). […] after transduction (Day 3), cells were electroporated with CAS9 protein (methods). […]

Sequence	LFC (~effect magnitude)
AAGCGTCAAAAGTCTGCCAG (chemistry not given here) [SEQ ID NO: 9, sgRNA targeting CD5]	0.5512
ACGGACATGAAGCAATATCA (listed as DNA, chemistry not fully specified) [SEQ ID NO: 34, sgRNA targeting TMEM222]	1.0461
AGAGCATTATGGGCAGACAG (listed as DNA, chemistry not fully specified) [SEQ ID NO: 22, sgRNA targeting GNA13]	0.3825
AGATATCACACATTACAGTG (listed as DNA, chemistry not fully specified) [SEQ ID NO: 25, sgRNA targeting RASA2]	0.861
AGGATCGACTTGTGGAACAA (listed as DNA, chemistry not fully specified) [SEQ ID NO: 27, sgRNA targeting RASA2]	0.4134
AGGCTCCAGGAATGTCCGCG (listed as DNA, chemistry not fully specified) [SEQ ID NO: 20, sgRNA targeting DGKZ]	0.4227
AGGTTCCAGGTCCGATCCAG (listed as DNA, chemistry not fully specified) [SEQ ID NO: 10, sgRNA targeting CD8A]	0.8084
AGTTCTACTACAGACCCCCG (chemistry not given here) [SEQ ID NO: 12, sgRNA targeting CDKN1B]	0.8623
CAAGTACCGACGCGCCAGCG (listed as DNA, chemistry not fully specified) [SEQ ID NO: 23, sgRNA targeting MEF2D]	0.7255
CAGCACTAGCAGTGGCACGG (chemistry not given here) [SEQ ID NO: 15, sgRNA targeting DGKA]	0.722
CATCATCCCTCACGGACCCG (listed as DNA, chemistry not fully specified) [SEQ ID NO: 24, sgRNA targeting MEF2D]	0.46
CCACTTGTTAACAGAGACCG (listed as DNA, chemistry not fully specified) [SEQ ID NO: 38, sgRNA targeting TNFAIP3]	0.633
CCAGTACAAACCCCAGAACG (listed as DNA, chemistry not fully specified) [SEQ ID NO: 40, sgRNA targeting UBASH3A]	0.6566
CCCCGTGCAGCGAGTCAGAG (listed as DNA, chemistry not fully specified) [SEQ ID NO: 18, sgRNA targeting DGKZ]	0.4938
CCGCTTTCCAGTGACCGACG (listed as DNA, chemistry not fully specified) [SEQ ID NO: 21, sgRNA targeting FIBP]	0.5586
CCTGTACCCGAATAACCATG (listed as DNA, chemistry not fully specified) [SEQ ID NO: 4, sgRNA targeting ARIH2]	0.3813
CGAAAAAGCAGTTCCGCTGG (listed as DNA, chemistry not fully specified) [SEQ ID NO: 30, sgRNA targeting SOCS1]	0.6088
CGGCGTGCGAACGGAATGTG (listed as DNA, chemistry not fully specified) [SEQ ID NO: 31, sgRNA targeting SOCS1]	0.7842

Sequence	LFC (~effect magnitude)
CGGCTCAGCTGGTATGACCC (chemistry not given here) [SEQ ID NO: 8, sgRNA targeting CD5]	1.4145
CGTGCTGGTGGTTCGCCACG (listed as DNA, chemistry not fully specified) [SEQ ID NO: 39, sgRNA targeting UBASH3A]	1.0191
CTCCCAAACTGACCTCTAGG (listed as DNA, chemistry not fully specified) [SEQ ID NO: 16, sgRNA targeting DGKA]	0.7081
CTCTCCTCAGTACCACAGCA (listed as DNA, chemistry not fully specified) [SEQ ID NO: 19, sgRNA targeting DGKZ]	0.6587
CTTGGCGTCCGTGAAGATGG (listed as DNA, chemistry not fully specified) [SEQ ID NO: 33, sgRNA targeting TCEB2]	0.6135
GAACGCGCTGAGAGTCCGTG (listed as DNA, chemistry not fully specified) [SEQ ID NO: 3, sgRNA targeting AGO1]	0.8318
GAATAAGATGTTCTACGCCG (listed as DNA, chemistry not fully specified) [SEQ ID NO: 17, sgRNA targeting DGKZ]	0.6282
GACTCACTGAGACAAAGTAG (listed as DNA, chemistry not fully specified) [SEQ ID NO: 36, sgRNA targeting TMEM222]	0.8727
GAGAACCTCGGAACATACGG (listed as DNA, chemistry not fully specified) [SEQ ID NO: 28, sgRNA targeting SMARCB1]	0.6271
GAGCAGCGGCTGTACAAGGT (listed as DNA, chemistry not fully specified) [SEQ ID NO: 32, sgRNA targeting TCEB2]	1.0955
GCAGGAAGACCGGCACGAAG (listed as DNA, chemistry not fully specified) [SEQ ID NO: 11, sgRNA targeting CD8A]	0.6365
GGGCAAGTACGAGTGGCAAG (chemistry not given here) [SEQ ID NO: 13, sgRNA targeting CDKN1B]	0.9886
GGGCCCCCAGTAGAATCCGC (listed as DNA, chemistry not fully specified) [SEQ ID NO: 29, sgRNA targeting SOCS1]	1.2551
TATGCCATGAGTGCTCAGAG (listed as DNA, chemistry not fully specified) [SEQ ID NO: 37, sgRNA targeting TNFAIP3]	0.651
TGAGGAGTACAAGCACCGCA (listed as DNA, chemistry not fully specified) [SEQ ID NO: 35, sgRNA targeting TMEM222]	1.3341
TGCACAGAACTATCGTACCA (listed as DNA, chemistry not fully specified) [SEQ ID NO: 5, sgRNA targeting CBLB]	1.9597
TGGACCACGAAGAGTTAACC (chemistry not given here) [SEQ ID NO: 14, sgRNA targeting CDKN1B]	0.8112
TGTGGGATGTCGACTCCTAG (chemistry not given here) [SEQ ID NO: 7, sgRNA targeting CBLB]	0.7876

Reference: patent US12473533B2, “Gene targets for T-cell-based immunotherapy” (The Regents of the University of California, priority 2018, dated 2025)
